Experiments:
[1] = tested on: Trichophyton rubrum (ATCC-28188); experiment: Checkerboard assay of fatty acid/ester with antifungals on Trichophyton rubrum (ATCC 28188); type: cell-based; parameters: key to FIC index: FIC index = sum of FICs; FIC = agent conc in well / agent MIC; details: for MIC: Trichophyton rubrum, ATCC28188, agent alone; for Agent MIC: agent alone
Procedure: (§1) The synergy is measured by determining the fractional inhibitory concentration (FIC) value of the combination. This experimental set up, called checkerboard method, allows measurement of a desired effect (inhibition of fungal growth in this case) at different combinations of various concentrations of the two agents (antifungal agent and fatty acid/ester). […] No agent is added to the penultimate column on the right and the bottom row. The final column on the right is used for growth control (only inoculum in broth) and sterility control (broth alone, no inoculum). […] FIC value for each agent in a particular well of the checkerboard layout was calculated by dividing the agent concentration in that well by the established MIC value of the agent against the test organism (Hsieh et al., Synergy assessed by checkerboard: A critical Analysis, Diagn. Microbiol. Infect Dis. (1993) 16:343-349). FIC values for both agents in a particular well were calculated in this way followed by determination of the FIC index (sum of the FICs of each drug in the concerned well). […] Agents Chemother. (2010) 54(2): 602-609].
(§2) Using the checkerboard layout experimental setup described above (FIG. 1A), various medium-chain fatty acids were tested for their ability to potentiate the activity of a known antifungal agent. Concentrations above and below the MIC of each test agent were tested using serial dilution. The same procedure was expanded to test combinations of various medium-chain fatty acids C-1 to C-14 (such caprylic acid, undecylenic acid and lauric acid) and esters thereof, with antifungal agents from various classes including azoles, allylamines, benzylamines, zinc pyrithione and piroctone olamine against both susceptible and resistant Trichophyton spp. (filamentous fungus) and Candida spp. (yeast).
(§3) Potentiation of the activity of antimycotic agents using ester derivatives of medium chain fatty acids was tested in a standard, well accepted in vitro assay system to check for synergy. This experimental set up, called checkerboard method, allows measurement of a desired effect (inhibition of fungal growth in this case) at different combinations of various concentrations of two agents. A chosen medium chain fatty acid (C-1 to C-14) or its ester derivative was tested for its ability to potentiate the activity of a known antifungal agent (various classes) using the checkerboard layout. Various concentrations above and below the MIC of each test agent were tested using serial dilution in Sabouraud dextrose broth. […] FIC value for a drug in a particular well of the checkerboard layout is calculated by dividing the drug concentration in that well by the established MIC value of the drug against the test organism (Hsieh et al., Synergy assessed by checkerboard: A critical Analysis, Diagn. Microbiol. Infect Dis. (1993) 16:343-349). FIC values for both test agents in a particular well are calculated in this way followed by determination of the FIC index (sum of the FICs of each drug in the concerned well).

[2] = tested on: azole resistant C. albicans MTCC 227; experiment: Checkerboard assay on azole resistant C. albicans MTCC 227; type: cell-based, Candida albicans; details: Candida albicans, MTCC227, agent alone; Table 12, undecylenic acid (C11) series
Procedure: as §1, with “FIC” for “FIC value for each agent in a particular well of the checkerboard layout was calculated by dividing the agent concentration in that well by the established MIC value of the agent against the test organism (Hsieh et al., Synergy assessed by checkerboard: A critical Analysis, Diagn. Microbiol. Infect Dis. (1993) 16:343-349). FIC”, “Chemother.” for “Chemother. (2010) 54(2): 602-609].”
as §2
as §3, with “FIC” for “FIC value for a drug in a particular well of the checkerboard layout is calculated by dividing the drug concentration in that well by the established MIC value of the drug against the test organism (Hsieh et al., Synergy assessed by checkerboard: A critical Analysis, Diagn. Microbiol. Infect Dis. (1993) 16:343-349). FIC”

[3] = Table 2, propylene glycol monocaprylate series
[4] = Table 3, glyceryl monocaprylate series
[5] = agent's MIC in combination antifungal + caprylic acid (partner: other agent of same combination no.)
[6] = agent's MIC in combination antifungal + glyceryl monocaprylate (partner: other agent of same combination no.)
[7] = agent's MIC in combination antifungal + propylene glycol monocaprylate (partner: other agent of same combination no.)
[8] = antifungal in combination with caprylic acid
[9] = antifungal in combination with glyceryl monocaprylate
[10] = antifungal in combination with propylene glycol monocaprylate
[11] = combination antifungal + caprylic acid
[12] = combination antifungal + glyceryl monocaprylate
[13] = combination antifungal + propylene glycol monocaprylate
[14] = Table 4, undecylenic acid (C11) series
[15] = Table 6, propylene glycol monolaurate series
[16] = agent's MIC in combination antifungal + propylene glycol monolaurate (partner: other agent of same combination no.)
[17] = agent's MIC in combination antifungal + undecylenic acid (partner: other agent of same combination no.)
[18] = antifungal in combination with propylene glycol monolaurate
[19] = antifungal in combination with undecylenic acid
[20] = combination antifungal + propylene glycol monolaurate
[21] = combination antifungal + undecylenic acid
[22] = antifungal in combination with lauric acid

Compound	MIC ([1]; Table 1, caprylic acid series) [µg/mL]	MIC [1, 3] [µg/mL]	MIC [1, 4] [µg/mL]	Combination MIC [1, 5] [µg/mL]	Combination MIC [1, 6] [µg/mL]	Combination MIC [1, 7] [µg/mL]	MIC [1, 14] [µg/mL]	Agent MIC [1, 14] [µg/mL]	Agent MIC [1, 3] [µg/mL]	FIC index [1, 8]	Interaction [1, 8]	FIC index [1, 9]	Interaction [1, 9]	FIC index [1, 10]	Interaction [1, 10]	FIC [1, 11]	FIC [1, 12]	FIC [1, 13]	Agent MIC ([1]; Table 1, caprylic acid series) [µg/mL]	Agent MIC [1, 4] [µg/mL]	other results
Cc1cc(C2CCCCC2)n(O)c(=O)c1 [Ciclopirox]	2	2	2	0.5	0.03	0.06				0.75	Synergistic (Combinations that gave FIC indices less than 1 were designated “synergistic”)	0.501	Synergistic (Combinations that gave FIC indices less than 1 were designated “synergistic”)	0.503	Synergistic (Combinations that gave FIC indices less than 1 were designated “synergistic”)	0.25	0.015	0.03			
CC[C@H](C)C[C@H](C)CCCCCCCCC(=O)N[C@H]1C[C@@H](O)[C@@H](NCCN)NC(=O)[C@@H]2[C@@H](O)CCN2C(=O)[C@H]([C@H](O)CCN)NC(=O)[C@H]([C@H](O)[C@@H](O)c2ccc(O)cc2)NC(=O)[C@@H]2C[C@@H](O)CN2C(=O)[C@H]([C@@H](C)O)NC1=O [Caspofungin]	64	64	64	16	2	0.125	64			0.75	Synergistic (Combinations that gave FIC indices less than 1 were designated “synergistic”)	0.531	Synergistic (Combinations that gave FIC indices less than 1 were designated “synergistic”)	0.252	Synergistic (Combinations that gave FIC indices less than 1 were designated “synergistic”)	0.25	0.031	0.002			MIC [1, 15]: 64 µg/mL; Combination MIC [1, 16]: 0.125 µg/mL; Combination MIC [1, 17]: 16 µg/mL; FIC index [1, 18]: 0.502; Interaction [1, 18]: Synergistic (Combinations that gave FIC indices less than 1 were designated “synergistic”); FIC index [1, 19]: 0.5; Interaction [1, 19]: Synergistic (Combinations that gave FIC indices less than 1 were designated “synergistic”); FIC [1, 20]: 0.002; FIC [1, 21]: 0.25
C[C@@H]1[C@H](O)[C@@H](C)/C=C/C=C/C=C/C=C/C=C/C=C/C=C/[C@H](O[C@@H]2O[C@H](C)[C@@H](O)[C@H](N)[C@@H]2O)C[C@@H]2O[C@](O)(C[C@@H](O)C[C@@H](O)[C@H](O)CC[C@@H](O)C[C@@H](O)CC(=O)O[C@H]1C)C[C@H](O)[C@H]2C(=O)O [Amphotericin B]						0.125		0.5	0.5					0.5	Synergistic (Combinations that gave FIC indices less than 1 were designated “synergistic”)			0.25			Agent MIC ([1]; Table 5, lauric acid (C12) series): 0.5 µg/mL; Agent MIC [1, 15]: 0.5 µg/mL; Combination MIC ([1]; agent's MIC in combination antifungal + lauric acid (partner: other agent of same combination no.)): 0.125 µg/mL; Combination MIC [1, 16]: 0.125 µg/mL; Combination MIC [1, 17]: 0.06 µg/mL; FIC index [1, 22]: 0.75; Interaction [1, 22]: Synergistic (Combinations that gave FIC indices less than 1 were designated “synergistic”); FIC index [1, 18]: 0.5; Interaction [1, 18]: Synergistic (Combinations that gave FIC indices less than 1 were designated “synergistic”); FIC index [1, 19]: 0.62; Interaction [1, 19]: Synergistic (Combinations that gave FIC indices less than 1 were designated “synergistic”); FIC ([1]; combination antifungal + lauric acid): 0.25; FIC [1, 20]: 0.25; FIC [1, 21]: 0.12
Zinc pyrithione				0.195	0.195				3.125	0.19	Synergistic (Combinations that gave FIC indices less than 1 were designated “synergistic”)	0.3125	Synergistic (Combinations that gave FIC indices less than 1 were designated “synergistic”)	0.75	Synergistic (Combinations that gave FIC indices less than 1 were designated “synergistic”)	0.06	0.0625		3.125	3.125	

The next lines start with results.

MIC ([1]; Table 1, caprylic acid series) [µg/mL]	MIC [1, 3] [µg/mL]	MIC [1, 4] [µg/mL]	Combination MIC [1, 5] [µg/mL]	Combination MIC [1, 6] [µg/mL]	Combination MIC [1, 7] [µg/mL]	MIC [1, 14] [µg/mL]	Agent MIC [1, 14] [µg/mL]	Agent MIC [1, 3] [µg/mL]	Compound	FIC index [1, 8]	Interaction [1, 8]	FIC index [1, 9]	Interaction [1, 9]	FIC index [1, 10]	Interaction [1, 10]	FIC [1, 11]	FIC [1, 12]	FIC [1, 13]	Agent MIC ([1]; Table 1, caprylic acid series) [µg/mL]	Agent MIC [1, 4] [µg/mL]	other results
						31.3	62.5		C=CCCCCCCCCC(=O)O [Undecylenic acid]												MIC [2]: 500 µg/mL
			2	2				2.5	Cc1cc(CC(C)CC(C)(C)C)n(O)c(=O)c1.NCCO (stereo not shown) [Piroctone olamine]	0.75	Synergistic (Combinations that gave FIC indices less than 1 were designated “synergistic”)	0.562	Synergistic (Combinations that gave FIC indices less than 1 were designated “synergistic”)		Synergistic (Combinations that gave FIC indices less than 1 were designated “synergistic”)	0.5	0.5		4	4	

Reference: US20190142800A1, “SYNERGISTIC ANTIFUNGAL COMPOSITIONS AND METHODS THEREOF” (VYOME THERAPEUTICS LIMITED, priority 2016, published 2019)
